{
  "source": "patent US6426370B1",
  "about": "“Use of thiol compounds in viral inactivation” (priority 2000, dated 2002)",
  "key": {"[1]": {"test_system": "human immunodeficiency virus (HIV)", "assay": "Syncytia formation of H9 cells infected with HIV virions pre-incubated with NAC", "assay_type": "cell-based", "settings": "for Test positives p/4 (syncytia formation): virions pre-incubated with 0.09 M NAC for 2 h, 4 parallel assays", "description": "(§1) In order to examine whether NAC influences the HIV infection of cells, HIV-permissive cells ([…]) were incubated together with HIV-positive cell culture supernatant and the syncytia formation taking place upon successful infection of the host cell was observed. The H9 cell line is a CD4+ T-cell line of human origin (Popovic et al., 1984, Science 224:497-500). The HI virions (viral titer of the original solution is 10^7 viruses/ml) were initially pre-incubated together with NAC at room temperature for two hours (final NAC concentration 0.09 M, dissolved in serum-free cell culture medium) and then mixed with cell culture medium in a decadic dilution series (10^−1 to 10^−5). The same was made analogously with the control without NAC addition. Thereafter, the thus pretreated virions (and the untreated control, respectively) were added to the H9 cell culture for two hours to enable the adsorption of the viruses. Then, the suspension was washed with NAC-free medium and 48-well cell culture plates were covered therewith. Pour parallel assays were carried out for each dilution series. The giant cell formation was observed microscopically over an observation period of 26 days and assessed on a scale from 0 (no syncytia detectable) to 3 (great number of syncytia). It can be seen in connection with the untreated control (FIG. 1) that the syncytia formation is delayed when the viral titer decreases. The degree of syncytia formation is thus directly proportional to the number of infectious viruses. While with a viral titer of 10^5 the syncytia formation starts within four days already, it is delayed by about 2 weeks when the original virus solution has been diluted 10,000 times.\nThe delay of giant cell formation, which is shown in FIG. 1, is due to a reduction of the number of infectious virions—because of a correlation between viral titer and the number of syncytia. It is in no case caused by an influence of the metabolism of the host cell. The reduced capability to form giant cells (FIG. 1) can be quantified as titer exponent n by observing the laws established by Spearmann-Kärber.\nWith a total number of 4 preparations per dilution series there is [formula]\nThus, nNAC=−2.5 follows for the titer exponent after NAC treatment. Since the dilution stage of the untreated control, where syncytia formation could no longer be observed, was not determined accurately in this experiment, the maximum value for this preparation, i.e., 10^−6 was assumed as a calculation basis. Correspondingly, the titer of the untreated control is 10^−5,5 or less. The titer after the NAC treatment is 10^−2,5."}, "[2]": {"test_system": "HBsAg (hepatitis-B virus surface antigen)", "assay": "Enzyme immunoassay (Abbott Auszyme) of HBsAg in HepG2-2.2.15 supernatant treated with NAC", "assay_type": "biochemical", "settings": "50 mM NAC", "description": "The cell culture supernatant of a HBV-producing cell line (HepG2-2.2.15 cells, Sells et al., 1984, Proc. Natl. Acad. U.S.A. 84:1005-1009) was separated from the cells and then the viral antigens (HBsAg, hepatitis-B virus “surface” antigen) of the viral envelope were identified by means of an enzyme immunoassay (EIA). In a parallel experimental assay, the cell culture supernatant was treated with NAC directly before the EIA was carried out. […] Since as is known the main antigenic domain of HBsAg is stabilized by numerous disulfide bridges, it can be inferred from this experiment that NAC effects a change in the three-dimensional structure on the virus surface, which is caused by a separation of disulfide bridges. These very viral surface structures are essential for the attachment of the virus to its host cell and thus for its infectiosity."}, "[3]": {"test_system": "human immunodeficiency virus (HIV)", "assay": "p24-Ag test in cell culture medium of HIV-infected H9 cells, virions treated with NAC prior to infection", "assay_type": "cell-based", "settings": "for p24-Ag content in the cell culture medium, extinction at 492 nm: day 26 after infection, NAC-treated virions, exclusion limit <0.093", "description": "as §1\nThis reduction of the infectiosity titer could also be confirmed by means of the p24-Ag test. For this purpose, the cell culture medium was renewed four days prior to the end of the experiment and the p24-Ag content of the cell culture medium was quantified upon termination of the experiment (day 26) (TABLE I). The p24-Ag values of the untreated control were always clearly positive."}, "HBsAg": {"test_system": "HBsAg", "assay": "HBsAg antigenicity of NAC-treated HBV-positive supernatant with or without dialysis", "assay_type": "biochemical, hepatitis B virus", "settings": "15 min incubation with NAC, dialysis against TNE buffer at 4° C. overnight versus not dialyzed"}, "vaccinia viruses": {"test_system": "vaccinia viruses", "assay": "Plaque assay of vaccinia virus pre-incubated with NAC on CV1 cells", "assay_type": "cell-based", "settings": "pre-incubation with 3, 10, 30 mM NAC, assay variation ±9%"}, "[4]": {"test_system": "HBeAg (hepatitis-B virus e antigen)", "assay": "Enzyme immunoassay (Abbott HBe EIA) of HBeAg in HepG2-2.2.15 supernatant treated with NAC", "assay_type": "biochemical", "settings": "50 mM NAC"}},
  "note": "“And” between values parts separate entries of the source, which are not always exact repeats. Equal values may be shown once.",
  "data": [
    {"smiles": "CC(=O)N[C@@H](CS)C(=O)O", "note": "[NAC, N-acetyl cysteine]", "values": [
      {"measurement": "reduction of the viral titer, measured on the basis of syncytia formation capability", "setting": "[1]; 0.09 M NAC versus untreated control", "result": "at least three decimal exponents"},
      {"measurement": "titer exponent n after NAC treatment (Spearmann-Kärber)", "setting": "[1]; 0.09 M NAC, 2 h, room temperature, syncytia formation", "result": "−2.5"},
      {"measurement": "syncytia formation within the observation period", "setting": "[1]; NAC-treated virions diluted by more than 100 times (viral titer <10^4), observation period of four weeks", "result": "no longer possible to observe syncytia formation"},
      {"measurement": "Test positives p/4 (syncytia formation)", "setting": "[1]; class limit -1 (virus dilution 10^-1)", "result": "4/4"},
      {"measurement": "Test positives p/4 (syncytia formation)", "setting": "[1]; class limit -2 (virus dilution 10^-2)", "result": "1/4"},
      {"measurement": "Test positives p/4 (syncytia formation)", "setting": "[1]; class limit -3 (virus dilution 10^-3)", "result": "1/4"},
      {"measurement": "Test positives p/4 (syncytia formation)", "setting": "[1]; class limit -4 (virus dilution 10^-4)", "result": "2/4"},
      {"measurement": "Test positives p/4 (syncytia formation)", "setting": "[1]; class limit -5 (virus dilution 10^-5)", "result": "0/4"},
      {"measurement": "detection of HBsAg by EIA", "setting": "[2]", "result": "not possible"},
      {"measurement": "p24-Ag content in the cell culture medium versus untreated control", "setting": "[3]; from an HIV dilution factor of 1/100 on, day 26", "result": "marked reduction"},
      {"measurement": "p24-Ag content in the cell culture medium, extinction at 492 nm", "setting": "[3]; virus dilution 10^-1", "result": ">2.0", "unit": "O.D. 492 nm"},
      {"measurement": "p24-Ag content in the cell culture medium, extinction at 492 nm", "setting": "[3]; virus dilution 10^-5", "result": "0.069 O.D. 492 nm and 0.04 O.D. 492 nm and 0.044 O.D. 492 nm"},
      {"measurement": "effect of NAC on the viruses (HBsAg antigenicity) after removing NAC by dialysis", "setting": "HBsAg", "result": "irreversible"},
      {"measurement": "reduction of the viral titer of the vaccinia virus suspension", "setting": "vaccinia viruses", "result": "up to 70%"},
      {"measurement": "recognition of HBeAg by EIA", "setting": "[4]", "result": "recognized unrestrictedly"}
    ]}
  ]
}
